From article PMC9732152 (The Laryngoscope, 2022)
Entries after “also recorded” stand apart in the source; their conditions may differ. Structures can show the parent of a compound that is named as a salt. Values belong to the molecule of their own block, whether it stands above or below them. Square brackets hold non-standard residues; d marks the D form. Peptide text beside a SMILES is read from it. * marks the point of attachment. Sta = CC(C)C[C@H](N)[C@@H](O)CC(=O)O; Isovaleryl = CC(C)CC(=O)*

Key:
[1] = target: porcine pepsin (Sus scrofa, UniProt P00791); experiment: Fluorescence polarization peptic activity assay with casein-Alexa647 substrate; format: biochemical; conditions: for inhibition of pepsin (IC50): 200nM casein-Alexa647 probe, 0.01U/μL pepsin, 5% DMSO, 0.1 M HCl pH 1
[2] = target: porcine pepsin A (Sus scrofa, UniProt P00791); format: binding; conditions: 100nM pepstatin-Alexa647 probe, 0.03U/ul porcine pepsin A, 37.5% DMSO, 0.1 M HCl pH 1
[3] = cited from earlier work
[4] = tested on: pepsin-mediated laryngeal damage; experiment: Laryngopharyngeal reflux mouse model; format: in vivo, female Jackson A/J mice
[5] = tested on: pepsin; conditions: cited from earlier work
[6] = aerosol with saline (solvent) instillation
[7] = gavage with saline (solvent) instillation

Sequence of porcine pepsin (P00791 60-385): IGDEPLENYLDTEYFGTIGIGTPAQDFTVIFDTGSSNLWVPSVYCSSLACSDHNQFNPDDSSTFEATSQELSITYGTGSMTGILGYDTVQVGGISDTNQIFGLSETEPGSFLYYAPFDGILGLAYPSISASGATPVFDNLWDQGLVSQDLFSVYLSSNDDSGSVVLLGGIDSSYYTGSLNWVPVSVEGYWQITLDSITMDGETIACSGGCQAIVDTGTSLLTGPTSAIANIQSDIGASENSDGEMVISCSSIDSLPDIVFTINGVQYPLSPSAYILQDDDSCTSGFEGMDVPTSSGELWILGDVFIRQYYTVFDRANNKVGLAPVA
Sequence of porcine pepsin A (P00791 60-385): as above

binding to pepsin [2]: bound
SMILES: CC(C)CN(C[C@@H](O)[C@H](Cc1ccccc1)NC(=O)O[C@H]1CCOC1)S(=O)(=O)c1ccc(N)cc1 [amprenavir]
inhibition of pepsin (IC50) [1]: inhibited pepsin at low micromolar concentrations; also recorded: low micromolar range | known side effects and interactions [3]: minimal side effects (diarrhea, nausea and vomiting)

SMILES: CC(C)CN(C[C@@H](O)[C@H](Cc1ccccc1)NC(=O)O[C@H]1CO[C@H]2OCC[C@H]21)S(=O)(=O)c1ccc(N)cc1 [darunavir, darunavir ethanolate]
inhibition of pepsin (IC50) [1]: inhibited pepsin at low micromolar concentrations; also recorded: low micromolar range | IC50 for pepsin compared with the other inhibitors ([1]; comparison among the HIV protease inhibitors tested): lowest IC50 | binding to pepsin [2]: bound | laryngeal epithelial histology/reactivity elicited by the drug itself [4, 6]: absent | apoptosis in laryngeal epithelium ([4]; aerosol, inhaled mass 12mg/kg/day darunavir, pepsin-pH7 instillation): no apoptosis was observed | laryngeal epithelial histology/reactivity elicited by the drug itself [4, 7]: mild reactivity (rare intraepithelial lymphocytes)

SMILES: CC(C)CN(C[C@@H](OP(=O)(O)O)[C@H](Cc1ccccc1)NC(=O)O[C@H]1CCOC1)S(=O)(=O)c1ccc(N)cc1 [fosamprenavir]
laryngeal epithelial histology/reactivity elicited by the drug itself [4, 6]: normal histology | laryngeal epithelial histology/reactivity elicited by the drug itself [4, 7]: normal histology

SMILES: CC(C)CC(=O)N[C@H](C(=O)N[C@H](C(=O)N[C@@H](CC(C)C)[C@@H](O)CC(=O)N[C@@H](C)C(=O)N[C@@H](CC(C)C)[C@@H](O)CC(=O)O)C(C)C)C(C)C [pepstatin, pepstatin A] (Isovaleryl-VV[Sta]A[Sta]-OH)
affinity for pepsin [5]: sub-nanomolar

binding to pepsin [2]: bound
SMILES: CC(C)c1nc(CN(C)C(=O)N[C@H](C(=O)N[C@@H](Cc2ccccc2)C[C@H](O)[C@H](Cc2ccccc2)NC(=O)OCc2cncs2)C(C)C)cs1 [ritonavir]
known side effects and interactions [3]: minimal side effects (diarrhea, nausea and vomiting)

binding to pepsin [2]: bound
SMILES: CC(C)(C)NC(=O)[C@@H]1C[C@@H]2CCCC[C@@H]2CN1C[C@@H](O)[C@H](Cc1ccccc1)NC(=O)[C@H](CC(N)=O)NC(=O)c1ccc2ccccc2n1 [saquinavir, saquinavir mesylate]
inhibition of pepsin (IC50) [1]: inhibited pepsin at low micromolar concentrations; also recorded: low micromolar range | known side effects and interactions [3]: QT prolongation, heart block, high blood lipids and liver problems
